Test [1] concerns the target T1, human DLK (Homo sapiens, UniProt Q12852).
T1 sequence (Q12852 1-859): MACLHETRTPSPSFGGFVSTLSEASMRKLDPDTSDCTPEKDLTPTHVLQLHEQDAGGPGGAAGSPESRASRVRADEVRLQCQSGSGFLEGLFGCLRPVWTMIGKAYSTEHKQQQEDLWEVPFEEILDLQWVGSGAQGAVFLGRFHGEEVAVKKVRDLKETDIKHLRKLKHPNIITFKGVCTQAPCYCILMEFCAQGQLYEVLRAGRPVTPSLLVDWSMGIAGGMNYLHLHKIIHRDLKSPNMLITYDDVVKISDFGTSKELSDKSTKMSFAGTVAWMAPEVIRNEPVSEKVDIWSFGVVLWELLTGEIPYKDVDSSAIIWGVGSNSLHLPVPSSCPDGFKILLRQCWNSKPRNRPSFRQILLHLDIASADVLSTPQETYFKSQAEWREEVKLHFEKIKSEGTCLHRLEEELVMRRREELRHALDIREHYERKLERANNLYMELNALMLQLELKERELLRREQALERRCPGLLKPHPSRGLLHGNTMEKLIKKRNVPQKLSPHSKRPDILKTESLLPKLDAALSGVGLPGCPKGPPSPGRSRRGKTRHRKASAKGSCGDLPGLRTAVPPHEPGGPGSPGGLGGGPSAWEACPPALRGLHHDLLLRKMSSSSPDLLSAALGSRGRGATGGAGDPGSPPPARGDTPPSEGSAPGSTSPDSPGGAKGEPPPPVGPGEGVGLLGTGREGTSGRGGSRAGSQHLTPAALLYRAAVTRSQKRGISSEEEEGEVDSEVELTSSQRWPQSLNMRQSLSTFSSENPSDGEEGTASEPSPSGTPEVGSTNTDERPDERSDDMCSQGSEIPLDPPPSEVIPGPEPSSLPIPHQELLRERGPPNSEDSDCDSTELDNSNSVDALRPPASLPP
Nature of the test: Phospho-cJun Cellular Assay. The test is classed as cell-based. More on the design: expressed in transfected cells. The following applies: HEK293 cells stably transfected with Dox-inducible human DLK; p-cJun (Ser63); 5 h compound incubation. The procedure, abridged: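 HEK293 cells with doxycycline-induced human DLK (induced 20 h; uninduced cells as negative control) treated with compound for 5 h at 37 °C. Phospho-cJun (Ser63) measured in lysates with detection-antibody kit; IC50 from variable-slope dose-response fit.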

For test [2], the target named is T1, human DLK. Put plainly: DLK Kd Determinations (KINOMEscan KdELECT, DiscoveRx). Also on record: full length of human DLK (amino acids 1-859); host or cells: transiently transfected HEK293 cells; unpurified extract. To be noted: fusion protein of full length human DLK (amino acids 1-859) and NFkB DNA binding domain; qPCR readout; duplicate. The method in brief:
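Competition binding of full-length human DLK (aa 1-859)-NFkB DBD fusion, DNA-tagged, from HEK293 extracts against an immobilized ligand; 1 h at room temperature, 0.9% DMSO. Bead-bound kinase was quantified by qPCR. Kd came from an 11-point 3-fold series (top 30,000 nM), in duplicate, with Hill slope fixed at −1.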

A word on the IC50: it is the point on the concentration scale where inhibition reaches its midpoint. Read a high IC50 as a need for much substance. The Kd is a measure of binding affinity in units of concentration. Low values mean a tighter complex, high ones a looser complex.

Take `CC(C)c1nc(-c2cnc(N)c(OC(F)(F)F)c2)cn1[C@H]1[C@@H]2CC(N3CCN(CCF)CC3)C[C@@H]21` (single isomer, unassigned) [Example 156b, 5-(1-(3-(4-(2-fluoroethyl)piperazin-1-yl)bicyclo[3.1.0]hexan-6-yl)-2-isopropyl-1H-imidazol-4-yl)-3-(trifluoromethoxy)pyridin-2-amine]: at human DLK [1], the IC50 was 874 nM. At human DLK [2], binding was put at a Kd of 11 nM.
Regarding `CC(C)c1nc(-c2cnc(N)c(OC(F)(F)F)c2)cn1[C@H]1[C@@H]2CC(N3CCCOCC3)C[C@@H]21` (single isomer, unassigned) [Example 20a, 5-(1-(3-(1,4-oxazepan-4-yl)bicyclo[3.1.0]hexan-6-yl)-2-isopropyl-1H-imidazol-4-yl)-3-(trifluoromethoxy)pyridin-2-amine], 965 nM corresponded to half-maximal inhibition on human DLK [1] (IC50). This compound also returned a Kd at human DLK [2] of 15 nM.
As to `Nc1ncc(-c2cn([C@H]3[C@@H]4CC(N5CCN(CCF)CC5)C[C@@H]43)c(CC3CC3)n2)cc1C(F)(F)F` (single isomer, unassigned) [Example 162b, 5-(2-(cyclopropylmethyl)-1-(3-(4-(2-fluoroethyl)piperazin-1-yl)bicyclo[3.1.0]hexan-6-yl)-1H-imidazol-4-yl)-3-(trifluoromethyl)pyridin-2-amine], it took 769 nM to reach half-maximal inhibition on human DLK [1] (IC50). Besides, on human DLK [2], binding was put at a Kd of 5.6 nM.
The corresponding values for `Nc1ncc(-c2cn([C@H]3[C@@H]4CN(C5COC5)C[C@@H]43)c(CC3CC3)n2)cc1C(F)(F)F` [Example 2, 5-(2-(cyclopropylmethyl)-1-((1R,5S,6s)-3-(oxetan-3-yl)-3-azabicyclo[3.1.0]hexan-6-yl)-1H-imidazol-4-yl)-3-(trifluoromethyl)pyridin-2-amine] are 1730 nM and 46 nM.
The matching figures for `CC(C)c1nc(-c2cnc(N)c(OC(F)(F)F)c2)cn1[C@H]1C2CC(N3C[C@@H]4C[C@H]3CO4)C[C@@H]21` (stereo in doubt) [Example 134, 5-(1-((1S,5S)-3-((1S,4S)-2-oxa-5-azabicyclo[2.2.1]heptan-5-yl)bicyclo[3.1.0]hexan-6-yl)-2-isopropyl-1H-imidazol-4-yl)-3-(trifluoromethoxy)pyridin-2-amine]: 1040 nM and 33 nM.
The corresponding values for `CC(C)c1nc(-c2cnc(N)c(OC(F)(F)F)c2)cn1[C@H]1[C@@H]2CN(C3COC3)C[C@@H]21` [Example 80, 5-(2-isopropyl-1-((1R,5S,6s)-3-(oxetan-3-yl)-3-azabicyclo[3.1.0]hexan-6-yl)-1H-imidazol-4-yl)-3-(trifluoromethoxy)pyridin-2-amine] are 1670 nM and 42 nM.
Compound `Nc1ncc(-c2cn([C@H]3[C@@H]4CN(C5CCOCC5)C[C@@H]43)c(C3CC3)n2)cc1OC(F)F` [Example 105, 5-(2-cyclopropyl-1-((1R,5S,6s)-3-(tetrahydro-2H-pyran-4-yl)-3-azabicyclo[3.1.0]hexan-6-yl)-1H-imidazol-4-yl)-3-(difluoromethoxy)pyridin-2-amine] gave an IC50 on human DLK [1] of 1900 nM. The compound also yielded a Kd on human DLK [2] of 79 nM.
The matching figures for `C[C@H]1COCCN1C1C[C@@H]2[C@H](C1)[C@H]2n1cc(-c2cnc(N)c(C(F)(F)F)c2)nc1C1CC1` (single isomer, unassigned) [Example 140a]: 834 nM and 32 nM.
The matching figures for `CN1CCN(C2C[C@@H]3[C@H](C2)[C@H]3n2cc(-c3cnc(N)c(OC(F)(F)F)c3)nc2CC2CC2)CC1` (single isomer, unassigned) [Example 151a, 5-(2-(cyclopropylmethyl)-1-(3-(4-methylpiperazin-1-yl)bicyclo[3.1.0]hexan-6-yl)-1H-imidazol-4-yl)-3-(trifluoromethoxy)pyridin-2-amine]: 994 nM and 26 nM.
The matching figures for `Nc1ncc(-c2cn3c(n2)C(C2CC2)N(C2COC2)CC3)cc1C(F)(F)F` (stereo not shown) [Example 4, 5-[8-cyclopropyl-7-(oxetan-3-yl)-5H,6H,7H,8H-imidazo[1,2-a]pyrazin-2-yl]-3-(trifluoromethyl)pyridin-2-amine]: 14800 nM and 390 nM.
Compound `Nc1ncc(-c2cn([C@H]3[C@@H]4CC(N5CCN(CCF)CC5)C[C@@H]43)c(C3CC3)n2)cc1C(F)(F)F` (single isomer, unassigned) [Example 153a, 5-(2-cyclopropyl-1-(3-(4-(2-fluoroethyl)piperazin-1-yl)bicyclo[3.1.0]hexan-6-yl)-1H-imidazol-4-yl)-3-(trifluoromethyl)pyridin-2-amine] showed an IC50 against human DLK [1] of 891 nM. The compound further came in with a Kd at human DLK [2] of 22 nM.
The matching figures for `Nc1ncc(-c2cn([C@H]3[C@@H]4CN(C5CCOCC5)C[C@@H]43)c(C3CC3)n2)cc1C(F)(F)F` [Example 74, 5-(2-cyclopropyl-1-((1R,5S,6s)-3-(tetrahydro-2H-pyran-4-yl)-3-azabicyclo[3.1.0]hexan-6-yl)-1H-imidazol-4-yl)-3-(trifluoromethyl)pyridin-2-amine]: 1350 nM and 54 nM.
On to `CC(C)c1nc(-c2cnc(N)c(OC(F)F)c2)cn1[C@H]1[C@@H]2CC(N3CCN(C)CC3)C[C@@H]21` (single isomer, unassigned) [Example 145b, 3-(difluoromethoxy)-5-(2-isopropyl-1-(3-(4-methylpiperazin-1-yl)bicyclo[3.1.0]hexan-6-yl)-1H-imidazol-4-yl)pyridin-2-amine], for which half-maximal inhibition against human DLK [1] (IC50) was put at 889 nM. The Kd at human DLK [2] turned out to be 50 nM.
The matching figures for `CN1CCN(C2C[C@@H]3[C@H](C2)[C@H]3n2cc(-c3cnc(N)c(OC(F)(F)F)c3)nc2C2CC2)CC1` (stereo partly shown) [Example 135, 5-(2-cyclopropyl-1-(3-(4-methylpiperazin-1-yl)bicyclo[3.1.0]hexan-6-yl)-1H-imidazol-4-yl)-3-(trifluoromethoxy)pyridin-2-amine]: 346 nM and 17 nM.
Regarding `CC(C)c1nc(-c2cnc(N)c(C(F)(F)F)c2)cn1C1CC2(CC(N3CCOCC3)C2)C1` (stereo not shown) [Example 38, 5-(2-isopropyl-1-(6-morpholinospiro[3.3]heptan-2-yl)-1H-imidazol-4-yl)-3-(trifluoromethyl)pyridin-2-amine], at human DLK [1], it took 1140 nM to reach half-maximal inhibition (IC50). For the same compound, binding on human DLK [2] was put at a Kd of 25 nM.
The corresponding values for `CC(C)c1nc(-c2cnc(N)c(OC(F)(F)F)c2)cn1[C@H]1[C@@H]2CC(N3CCOC[C@@H]3C)C[C@@H]21` (single isomer, unassigned) [Example 157b] are 827 nM and 22 nM.
The corresponding values for `CC(C)Cc1nc(-c2cnc(N)c(C(F)(F)F)c2)cn1[C@H]1[C@@H]2CN(CCF)C[C@@H]21` [Example 126, 5-(1-((1R,5S,6s)-3-(2-fluoroethyl)-3-azabicyclo[3.1.0]hexan-6-yl)-2-isobutyl-1H-imidazol-4-yl)-3-(trifluoromethyl)pyridin-2-amine] are 823 nM and 34 nM.
The corresponding values for `COCCN1C[C@@H]2[C@H](C1)[C@H]2n1cc(-c2cnc(N)c(C(F)(F)F)c2)nc1C1CC1` [Example 94, 5-(2-cyclopropyl-1-((1R,5S,6s)-3-(2-methoxyethyl)-3-azabicyclo[3.1.0]hexan-6-yl)-1H-imidazol-4-yl)-3-(trifluoromethyl)pyridin-2-amine] are 1960 nM and 61 nM.
On human DLK [1], `Nc1ncc(-c2cn([C@H]3[C@@H]4CC(N5CCCOCC5)C[C@@H]43)c(C3CC3)n2)cc1C(F)(F)F` (single isomer, unassigned) [Example 141b, 5-(1-(3-(1,4-oxazepan-4-yl)bicyclo[3.1.0]hexan-6-yl)-2-cyclopropyl-1H-imidazol-4-yl)-3-(trifluoromethyl)pyridin-2-amine] showed an IC50 of 587 nM. The same compound came in with a Kd on human DLK [2] of 16 nM.
The matching figures for `CC(C)c1nc(-c2cnc(N)c(C(F)(F)F)c2)cn1[C@H]1[C@@H]2CC(N3CCN(C)CC3)C[C@@H]21` (stereo partly shown) [Example 132, 5-(2-isopropyl-1-(3-(4-methylpiperazin-1-yl)bicyclo[3.1.0]hexan-6-yl)-1H-imidazol-4-yl)-3-(trifluoromethyl)pyridin-2-amine]: 909 nM and 22 nM.
